Measured values reported in publication PMC10584170, “Machine learning-based phenotypic imaging to characterise the targetable biology of Plasmodium falciparum male gametocytes for the development of transmission-blocking antimalarials” (PLOS Pathogens, 2023).
Like-named read-outs stand apart in the source and are kept apart here.

Assays:
[1] = test system: P. falciparum female gametocytes; test: P. falciparum Dual Gamete Formation Assay (PfDGFA), female readout (Pfs25-positive female gametes); type: cell-based, Plasmodium falciparum NF54; conditions: for inhibition at 2 µM: 24h preincubation with gametocytes
In short: (§1)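 Read-outs are automated image counts of exflagellation centres (brightfield, 10 frames over 1 s) and Pfs25-positive female gametes (Cy3 fluorescence).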

[2] = test system: P. falciparum male gametocytes; test: P. falciparum Dual Gamete Formation Assay (PfDGFA), male readout (exflagellation); type: cell-based, Plasmodium falciparum NF54; conditions: for inhibition at 2 µM: 24h preincubation with gametocytes; for Activity: hit = >50% inhibition in male or female readout in at least 3 replicates, 0 = no class assigned
In short: as §1

[3] = 2µM, 24h preincubation with gametocytes prior to induction of gametogenesis, average of replicates
[4] = 2µM, 24h preincubation with gametocytes prior to induction of gametogenesis, replicate R1
[5] = 2µM, 24h preincubation with gametocytes prior to induction of gametogenesis, replicate R3
[6] = 2µM, 24h preincubation with gametocytes prior to induction of gametogenesis, replicate R4
[7] = 2µM, 24h preincubation, hits selected on >50% inhibition in the female readout across replicates
[8] = 2µM, 24h preincubation, hits selected on >50% inhibition in the male readout across replicates
[9] = PfDGFA at 2µM, 24h preincubation
[10] = PfDGFA at 2µM, 24h preincubation with gametocytes prior to induction of gametogenesis, replicate R1
[11] = PfDGFA at 2µM, 24h preincubation with gametocytes prior to induction of gametogenesis, replicate R3
[12] = PfDGFA at 2µM, 24h preincubation with gametocytes prior to induction of gametogenesis, replicate R4
[13] = PfDGFA at 2µM, 24h preincubation, average of replicates

SMILES | Average inhibition female (%) [1, 3] [%] | % inhibition female (individual replicates) R1 [1, 4] [%] | % inhibition female (individual replicates) R3 [1, 5] [%] | % inhibition female (individual replicates) R4 [1, 6] [%] | HitlevelF [1, 7] | Average inhibition male (%) [2, 3] [%] | % inhibition male (individual replicates) R1 [2, 4] [%] | % inhibition male (individual replicates) R3 [2, 5] [%] | % inhibition male (individual replicates) R4 [2, 6] [%] | HitlevelM [2, 8] | Activity [2, 9] | further results
CC(C)(CN)c1nc(-c2ccc(Br)c(O)c2)c(-c2ccncc2)[nH]1.Cl [TCMDC-140680] |  |  |  |  |  |  |  |  |  |  |  | Selectivity ratio F ([1]; HepG2 Tox50 versus female IC50): 175.05; inhibition at 2 µM ([1]; Plasmodium falciparum, PfDGFA at 2µM, average of replicates, read-out: Average inhibition female (%)): 96%; inhibition at 2 µM ([1]; Plasmodium falciparum, PfDGFA at 2µM, replicate R1, read-out: % inhibition female (individual replicates) R1): 91.3%; inhibition at 2 µM ([1]; Plasmodium falciparum, PfDGFA at 2µM, replicate R2, read-out: % inhibition female (individual replicates) R2): 95.4%; inhibition at 2 µM ([1]; Plasmodium falciparum, PfDGFA at 2µM, replicate R3, read-out: % inhibition female (individual replicates) R3): 104%; inhibition at 2 µM ([1]; Plasmodium falciparum, PfDGFA at 2µM, replicate R4, read-out: % inhibition female (individual replicates) R4): 93%; IC50 ([1]; Plasmodium falciparum, PfDGFA, 24 h incubation with gametocytes before induction, female gamete readout, read-out: Female IC50): 570 nM; HitlevelF ([1]; number of replicates with >50% inhibition in the female readout, 2µM): 4; Selectivity Ratio M ([2]; HepG2 Tox50 versus male IC50): 67.46; inhibition at 2 µM ([2]; Plasmodium falciparum, PfDGFA at 2µM, average of replicates, read-out: Average inhibition male (%)): 80.7%; inhibition at 2 µM ([2]; Plasmodium falciparum, PfDGFA at 2µM, replicate R1, read-out: % inhibition male (individual replicates) R1): 55.5%; inhibition at 2 µM ([2]; Plasmodium falciparum, PfDGFA at 2µM, replicate R2, read-out: % inhibition male (individual replicates) R2): 95.4%; inhibition at 2 µM ([2]; Plasmodium falciparum, PfDGFA at 2µM, replicate R3, read-out: % inhibition male (individual replicates) R3): 94%; inhibition at 2 µM ([2]; Plasmodium falciparum, PfDGFA at 2µM, replicate R4, read-out: % inhibition male (individual replicates) R4): 77.9%; IC50 ([2]; Plasmodium falciparum, PfDGFA, 24 h incubation with gametocytes before induction, exflagellation readout, read-out: Male IC50): 1480 nM; HitlevelM ([2]; number of replicates with >50% inhibition in the male readout, 2µM): 4
CN1CCC(N2CCN(CCOc3cc(NC(=O)/C=C/c4ccccc4Cl)ccc3Br)CC2)CC1.O=C(O)C(=O)O [TCMDC-140962] | 8.6 | 14.8 | -6.3 | 11.7 | 0 | 15.3 | 25.8 | -8.5 | 17.6 | 0 | 0 | 
COc1cc2c(cc1OCCN1CCC(N)CC1)N(C(=O)/C=C/c1ccccc1Cl)CC2.Cl [TCMDC-140969] | 11.8 | 7.5 | 2.9 | 33.3 | 0 | 28.3 | 26.3 | 11.1 | 42.2 | 0 | 0 | 
CC1(CCN2CCC(c3c[nH]c4cnccc34)CC2)CCCc2c(Br)cccc2C1=O.Cl (centres unmarked) [TCMDC-141171] | 14.9 | 12.8 | 15.8 | 19.7 | 0 | 55.1 | 49.5 |  | 49.8 | 1 | 0 | 
CC1(CCCCN2CCC(c3c[nH]c4cnccc34)CC2)C(=O)Nc2cccc(Cl)c21 (centres unmarked) [TCMDC-141177] | 23.5 | 22.1 | 12.9 | 47.7 |  | 42.5 | 42.7 | 28.4 | 48.2 |  |  | HitlevelF ([1]; 2µM, 24h preincubation, number of replicates with >50% inhibition in the female readout): 0; HitlevelM ([2]; 2µM, 24h preincubation, number of replicates with >50% inhibition in the male readout): 1
O=C(O)C(F)(F)F.O=[N+]([O-])c1cccc(CNCC2CCN(Cc3ccc(-c4ccccc4)cc3)CC2)c1 [TCMDC-141208] | 6.3 | -1.5 | 6.7 | 13.0 | 0 | 36.0 | 32.1 | 8.2 | 53.6 | 2 | 0 | 
Cc1cc(F)ccc1-c1nc(Nc2ccncc2)c2ccn(C)c2n1 [TCMDC-141231] |  |  |  |  |  |  |  |  |  |  |  | % inhibition female (individual replicates) R1 [1, 10]: 10.5%; % inhibition female (individual replicates) R3 [1, 11]: -5.5%; % inhibition female (individual replicates) R4 [1, 12]: -9.9%; Average inhibition female (%) [1, 13]: -2.8%; % inhibition male (individual replicates) R1 [2, 10]: -14.5%; % inhibition male (individual replicates) R3 [2, 11]: -17.7%; % inhibition male (individual replicates) R4 [2, 12]: 32.9%; Average inhibition male (%) [2, 13]: -2.0%
